From ChEMBL document CHEMBL1165847, “Urotensin-II receptor modulators as potential drugs” (J Med Chem, 2010)
Active and inactive are the calls of the source. The rule behind the calls is not given here. Where a SMILES comes first, the peptide text is derived from it. Bridges are numbered along the chain shown (N, C = ends). [ ]: non-standard residue; d: D form. 1Nal = N[C@@H](Cc1cccc2ccccc12)C(=O)O; 2Nal = N[C@@H](Cc1ccc2ccccc2c1)C(=O)O

Key:
[1] = target: T1, Urotensin-2 receptor (Rattus norvegicus) (UniProt P49684); assay: Antagonist activity at rat urotensin 2 receptor expressed in CHO cells assessed as calcium mobilization at 300 nM by FLIPR; assay type: functional, cell-based
T1 sequence (whole entry): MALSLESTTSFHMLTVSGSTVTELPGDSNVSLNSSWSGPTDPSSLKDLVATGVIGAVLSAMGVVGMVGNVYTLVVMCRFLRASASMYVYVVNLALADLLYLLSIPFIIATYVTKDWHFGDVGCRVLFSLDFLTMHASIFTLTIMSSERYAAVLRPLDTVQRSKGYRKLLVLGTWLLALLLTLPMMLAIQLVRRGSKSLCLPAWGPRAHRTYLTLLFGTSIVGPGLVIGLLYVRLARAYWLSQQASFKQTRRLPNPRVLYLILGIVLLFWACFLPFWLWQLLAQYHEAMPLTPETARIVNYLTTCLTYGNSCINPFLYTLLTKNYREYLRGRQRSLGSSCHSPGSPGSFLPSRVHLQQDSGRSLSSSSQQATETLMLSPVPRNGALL

Urotensin-2 receptor [2] = target: T2, Urotensin-2 receptor (Rattus norvegicus, UniProt P49684); assay: Displacement of [125I]U2 from rat urotensin 2 receptor expressed in CHO cells; assay type: cell-based
T2 sequence (P49684 whole entry): T1 sequence (whole entry)

Urotensin-2 receptor [3] = target: T2, Urotensin-2 receptor; assay: Agonist activity at rat urotensin 2 receptor expressed in CHO cells assessed as calcium mobilization by FLIPR; assay type: functional, cell-based
[4] = target: T1, Urotensin-2 receptor (Rattus norvegicus); assay: Antagonist activity at rat urotensin 2 receptor expressed in CHO cells assessed as calcium mobilization at 10000 nM by FLIPR; assay type: functional, cell-based
Aorta = assay: Vasoconstriction activity in spontaneously […] rat thoracic aorta at 30 nM; assay type: functional
[5] = target: T1, Urotensin-2 receptor (Rattus norvegicus); assay: Agonist activity at rat urotensin 2 receptor expressed in CHO cells assessed as calcium mobilization at 1000 nM by FLIPR; assay type: functional, cell-based
[6] = target: T1, Urotensin-2 receptor (Rattus norvegicus); assay: Antagonist activity at rat urotensin 2 receptor expressed in CHO cells assessed as calcium mobilization at 100 nM by FLIPR; assay type: functional, cell-based

Row | Compound | EC50 (Urotensin-2 receptor [3]) | Ki (Urotensin-2 receptor [2]) | other results
1 | CC(=O)N[C@H]1CSSC[C@@H](C(N)=O)NC(=O)[C@H](Cc2ccc(O)cc2)NC(=O)[C@@H](CCCCN)NC(=O)[C@H](Cc2c[nH]c3ccccc23)NC(=O)[C@H](Cc2ccccc2)NC1=O |  |  | Activity [1]: inactive; Ki (Urotensin-2 receptor [2]; cho): < 10000 nM
2 | CC(=O)N[C@@H](Cc1c[nH]c2ccccc12)C(=O)N[C@@H](CCCCN)C(=O)N[C@@H](Cc1ccc(O)cc1)C(N)=O (Ac-Trp-Lys-Tyr-NH2) | < 500 nM |  | Ki (Urotensin-2 receptor [2]; cho): < 10000 nM
3 | CC(C)[C@H](NC(=O)[C@@H]1CSSC[C@H](NC(=O)[C@H](CC(N)=O)NC(=O)[C@H](C)N)C(=O)N[C@@H](Cc2ccccc2)C(=O)N[C@@H](C)C(=O)N[C@@H](CCCCN)C(=O)N[C@@H](Cc2ccc(O)cc2)C(=O)N1)C(=O)O (H-ANCFAKYCV-OH; disulfide 3-8) |  |  | Activity [4]: inactive
4 | CC(=O)N[C@H]1CSSC[C@@H](C(N)=O)NC(=O)[C@H](Cc2ccccc2)NC(=O)[C@H](CCCCN)NC(=O)[C@H](Cc2c[nH]c3ccccc23)NC(=O)[C@H](Cc2ccccc2)NC1=O (Ac-CFWKFC-NH2; disulfide 1-6) | 2.1 nM | 17 nM | Activity (Aorta): 11%
5 | CC(=O)N[C@H]1CSSC[C@@H](C(N)=O)NC(=O)[C@@H](Cc2ccc(O)cc2)NC(=O)[C@H](CCCCN)NC(=O)[C@H](Cc2c[nH]c3ccccc23)NC(=O)[C@H](Cc2ccccc2)NC1=O | 37 nM | 1100 nM | 
6 | Ac-SFWKYS-NH2 | < 500 nM |  | Activity [1]: inactive; Ki (Urotensin-2 receptor [2]; cho): < 10000 nM; Activity [5]: 50%
7 | CC(=O)N[C@H]1CSSC[C@@H](C(N)=O)NC(=O)[C@H](Cc2ccc(O)cc2)NC(=O)[C@H](CCCCN)NC(=O)[C@@H](Cc2c[nH]c3ccccc23)NC(=O)[C@H](Cc2ccccc2)NC1=O | 26 nM | 610 nM | 
8 | CC(C)[C@H](NC(=O)[C@@H]1CSSC[C@H](NC(=O)[C@H](CC(=O)O)NC(=O)[C@H](C)N)C(=O)N[C@@H](C)C(=O)N[C@@H](Cc2c[nH]c3ccccc23)C(=O)N[C@@H](CCCCN)C(=O)N[C@@H](Cc2ccc(O)cc2)C(=O)N1)C(=O)O (H-ADCAWKYCV-OH; disulfide 3-8) | 6.5 nM |  | 
9 | CC(C)[C@H](NC(=O)[C@@H]1CSSC[C@H](NC(=O)[C@H](CC(=O)O)NC(=O)[C@H](C)N)C(=O)N[C@@H](Cc2ccccc2)C(=O)N[C@@H](C)C(=O)N[C@@H](CCCCN)C(=O)N[C@@H](Cc2ccc(O)cc2)C(=O)N1)C(=O)O (H-ADCFAKYCV-OH; disulfide 3-8) | > 1000 nM |  | 
10 | CC(C)[C@H](NC(=O)[C@@H]1CSSC[C@H](NC(=O)[C@H](CC(=O)O)NC(=O)[C@H](C)N)C(=O)N[C@@H](Cc2ccccc2)C(=O)N[C@@H](Cc2c[nH]c3ccccc23)C(=O)N[C@@H](C)C(=O)N[C@@H](Cc2ccc(O)cc2)C(=O)N1)C(=O)O (H-ADCFWAYCV-OH; disulfide 3-8) | > 1000 nM |  | 
11 | CC(C)[C@H](NC(=O)[C@@H]1CSSC[C@H](NC(=O)[C@H](CC(N)=O)NC(=O)[C@H](C)N)C(=O)N[C@@H](Cc2ccccc2)C(=O)N[C@@H](Cc2c[nH]c3ccccc23)C(=O)N[C@@H](CCCCN)C(=O)N[C@@H](C)C(=O)N1)C(=O)O (H-ANCFWKACV-OH; disulfide 3-8) |  |  | Activity [4]: inactive; Activity [5]: 67%
12 | CC(=O)N[C@H]1CSSC[C@@H](C(N)=O)NC(=O)[C@H](C)NC(=O)[C@H](CCCCN)NC(=O)[C@H](Cc2c[nH]c3ccccc23)NC(=O)[C@H](Cc2ccccc2)NC1=O (Ac-CFWKAC-NH2; disulfide 1-6) |  | > 10000 nM | Activity (Aorta): 0%; Activity [5]: 50%
13 | COc1cc(Br)c(S(=O)(=O)Nc2ccc(C(F)(F)F)c(O[C@@H]3CCN(C)C3)c2)cc1OC |  |  | inhibition [6]: 97%
14 | NCCCC[C@@H]1NC(=O)[C@H](Cc2c[nH]c3ccccc23)NC(=O)[C@H](Cc2ccccc2)NC(=O)[C@@H](N)CSSC[C@@H](C(=O)O)NC(=O)[C@H](Cc2ccc(O)cc2)NC1=O (H-CFWKYC-OH; disulfide 1-6) | 1.6 nM |  | 
15 | CC(C)[C@H](NC(=O)[C@@H]1CSSC[C@H](NC(=O)[C@H](CC(N)=O)NC(=O)[C@H](C)N)C(=O)N[C@@H](Cc2ccccc2)C(=O)N[C@@H](Cc2c[nH]c3ccccc23)C(=O)N[C@@H](C)C(=O)N[C@@H](Cc2ccc(O)cc2)C(=O)N1)C(=O)O (H-ANCFWAYCV-OH; disulfide 3-8) |  |  | Activity [4]: inactive
16 | CC(=O)N[C@H]1CSSC[C@@H](C(N)=O)NC(=O)[C@H](Cc2ccc3ccccc3c2)NC(=O)[C@H](CCCCN)NC(=O)[C@H](Cc2c[nH]c3ccccc23)NC(=O)[C@H](Cc2ccccc2)NC1=O (Ac-CFWK[2Nal]C-NH2; disulfide 1-6) |  |  | Activity (Aorta): 43%
17 | CC(=O)N[C@H]1CSSC[C@@H](C(N)=O)NC(=O)[C@H](Cc2ccc(O)cc2)NC(=O)[C@H](CCCCN)NC(=O)[C@H](Cc2c[nH]c3ccccc23)NC(=O)[C@@H](Cc2ccccc2)NC1=O |  |  | Activity [1]: inactive; Ki (Urotensin-2 receptor [2]; cho): < 10000 nM
18 | CC(=O)N[C@H]1CSSC[C@@H](C(N)=O)NC(=O)[C@H](Cc2ccc(O)cc2)NC(=O)[C@H](CCCCN)NC(=O)[C@H](Cc2ccc3ccccc3c2)NC(=O)[C@H](Cc2ccccc2)NC1=O (Ac-CF[2Nal]KYC-NH2; disulfide 1-6) | 31 nM | 200 nM | 

Further compounds by falling EC50 (Urotensin-2 receptor [3]), results first:

Row | EC50 (Urotensin-2 receptor [3]) | Ki (Urotensin-2 receptor [2]) | Compound | other results
19 | 1.6 nM | 15 nM | CC(=O)N[C@H]1CSSC[C@@H](C(N)=O)NC(=O)[C@H](Cc2ccc(O)cc2)NC(=O)[C@H](CCCCN)NC(=O)[C@H](Cc2c[nH]c3ccccc23)NC(=O)[C@H](Cc2ccccc2)NC1=O | 
20 | 1.5 nM | 4.1 nM | CC(=O)N[C@H]1CSSC[C@@H](C(N)=O)NC(=O)[C@H](Cc2cccc3ccccc23)NC(=O)[C@H](CCCCN)NC(=O)[C@H](Cc2c[nH]c3ccccc23)NC(=O)[C@H](Cc2ccccc2)NC1=O (Ac-CFWK[1Nal]C-NH2; disulfide 1-6) | 
21 | 0.76 nM |  | CC(C)[C@H](NC(=O)[C@@H]1CSSC[C@H](N)C(=O)N[C@@H](Cc2ccccc2)C(=O)N[C@@H](Cc2c[nH]c3ccccc23)C(=O)N[C@@H](CCCCN)C(=O)N[C@@H](Cc2ccc(O)cc2)C(=O)N1)C(=O)O (H-CFWKYCV-OH; disulfide 1-6) | 
22 | 0.6 nM |  | CC(C)[C@H](NC(=O)[C@@H]1CSSC[C@H](NC(=O)[C@H](C)NC(=O)[C@H](C)N)C(=O)N[C@@H](Cc2ccccc2)C(=O)N[C@@H](Cc2c[nH]c3ccccc23)C(=O)N[C@@H](CCCCN)C(=O)N[C@@H](Cc2ccc(O)cc2)C(=O)N1)C(=O)O (H-AACFWKYCV-OH; disulfide 3-8) | 
23 | 0.4 nM |  | C[C@H](N)C(=O)N[C@@H](CC(=O)O)C(=O)N[C@H]1CSSC[C@@H](C(=O)N[C@@H](C)C(=O)O)NC(=O)[C@H](Cc2ccc(O)cc2)NC(=O)[C@H](CCCCN)NC(=O)[C@H](Cc2c[nH]c3ccccc23)NC(=O)[C@H](Cc2ccccc2)NC1=O (H-ADCFWKYCA-OH; disulfide 3-8) | 
24 | 0.34 nM | 0.02 nM | CC(C)[C@H](NC(=O)[C@@H]1CSSC[C@H](NC(=O)[C@H](CC(=O)O)NC(=O)[C@H](C)NC(=O)[C@@H](NC(=O)CNC(=O)[C@H](C)N)[C@@H](C)O)C(=O)N[C@@H](Cc2ccccc2)C(=O)N[C@@H](Cc2c[nH]c3ccccc23)C(=O)N[C@@H](CCCCN)C(=O)N[C@@H](Cc2ccc3ccccc3c2)C(=O)N1)C(=O)O (H-AGTADCFWK[2Nal]CV-OH; disulfide 6-11) | 
25 | 0.29 nM |  | CC(C)[C@H](NC(=O)[C@@H]1CSSC[C@H](NC(=O)[C@H](CC(=O)O)NC(=O)[C@H](C)NC(=O)[C@@H](NC(=O)CN)[C@@H](C)O)C(=O)N[C@@H](Cc2ccccc2)C(=O)N[C@@H](Cc2c[nH]c3ccccc23)C(=O)N[C@@H](CCCCN)C(=O)N[C@@H](Cc2ccc(O)cc2)C(=O)N1)C(=O)O (H-GTADCFWKYCV-OH; disulfide 5-10) | 
26 | 0.17 nM | 0.19 nM | CC(C)[C@H](NC(=O)[C@@H]1CSSC[C@H](NC(=O)[C@H](CC(=O)O)NC(=O)[C@H](C)NC(=O)[C@@H](NC(=O)CNC(=O)[C@H](C)N)[C@@H](C)O)C(=O)N[C@@H](Cc2ccccc2)C(=O)N[C@@H](Cc2c[nH]c3ccccc23)C(=O)N[C@@H](CCCCN)C(=O)N[C@@H](Cc2ccc(O)cc2)C(=O)N1)C(=O)O (H-AGTADCFWKYCV-OH; disulfide 6-11) | Activity (Aorta): 91%
27 | 0.16 nM |  | CC(C)[C@H](NC(=O)[C@@H]1CSSC[C@H](NC(=O)[C@H](CC(=O)O)NC(=O)[C@H](C)N)C(=O)N[C@@H](Cc2ccccc2)C(=O)N[C@@H](Cc2c[nH]c3ccccc23)C(=O)N[C@@H](CCCCN)C(=O)N[C@@H](Cc2ccc(O)cc2)C(=O)N1)C(=O)O (H-ADCFWKYCV-OH; disulfide 3-8) | 
28 | 0.11 nM |  | CC(C)[C@H](NC(=O)[C@@H]1CSSC[C@H](NC(=O)[C@H](CC(=O)O)NC(=O)[C@H](C)NC(=O)[C@@H](N)[C@@H](C)O)C(=O)N[C@@H](Cc2ccccc2)C(=O)N[C@@H](Cc2c[nH]c3ccccc23)C(=O)N[C@@H](CCCCN)C(=O)N[C@@H](Cc2ccc(O)cc2)C(=O)N1)C(=O)O (H-TADCFWKYCV-OH; disulfide 4-9) | 
29 | 0.1 nM |  | CC(C)[C@H](NC(=O)[C@@H]1CSSC[C@H](NC(=O)[C@@H](N)CC(=O)O)C(=O)N[C@@H](Cc2ccccc2)C(=O)N[C@@H](Cc2c[nH]c3ccccc23)C(=O)N[C@@H](CCCCN)C(=O)N[C@@H](Cc2ccc(O)cc2)C(=O)N1)C(=O)O (H-DCFWKYCV-OH; disulfide 2-7) | 
